In patent US9303088B2, “Detecting and treating breast cancer resistance to EGFR inhibitors” (The Regents of the University of California, priority 2009, dated 2016):

Columns and labels:
HMT3522 T4-2 cells = test: Phenotypic reversion of malignant T4-2 cells cultured in 3D lrECM with signaling inhibitors; type: cell-based, human; conditions: for induction of phenotypically normal acinus-like structures: T4-2 cells in 3D lrECM; for phenotypic reversion of control T4-2 cells: vector control T4-2 cells (FIG. 17C)
From the text: The retroviral cDNA library from malignant T4-2 cells was re-introduced into T4-2 cells. Retrovirus transduced T4-2 cells were subsequently grown on 3D1rECM with one of the small molecule inhibitors, AG1478 (EGFR inhibitor), PD98059 (mitogen-activated protein kinase inhibitor), or LY294002 (PI3K inhibitor), […] […] After the second round of screening, the cDNA inserts were recovered from genomic DNA by PCR using primers to the flanking sequences of the retroviral cloning vector. Genomic DNA was isolated from selected clones grown on the monolayer.
Microscopic visual fields of FIG. 3 show non-malignant HMT3522 S1 cells form polarized acinar structures (FIG. 3A) resembling normally differentiated acinus in vivo, whereas malignant T4-2 cells form disorganized colonies constantly growing on 3D 1rECM (FIG. 3B).
(§1) FIG. 4B is a western blot of extracted cell lysates blotted with antibodies against EGFR, β-integrin, phosphorylated EGFR, and E-cadherin, which was used as a loading control.

[1] = test system: FAM83A overexpressing T4-2 cells; test: Phenotypic reversion of FAM83A-overexpressing T4-2 cells in 3D lrECM with inhibitors; type: cell-based, human; conditions: for phenotypic reversion of full-length FAM83A overexpressing T4-2 cells: 3D lrECM (FIG. 5B)
[2] = test system: Vector control T4-2 cells; test: Lapatinib treatment of vector control T4-2 xenografts in mice; type: in vivo, BALB/c-nude mice
Procedure: (§2) Animal experiments were performed under federal guidelines and approved by Institutional Animal Welfare and Research Committee at LBN. Exponentially growing T4-2 cells or MDA-MB-468 cells were suspended at the density of 5×10^6 or 10×10^6, respectively, in 100 μl medium containing DMEM/F12 medium (50%) and Matrigel (50%). Cell suspension was subcutaneously injected into the rear flank of 6-8 wk old athymic female BALB/c-nude mice (nu/nu) (Charles River Laboratories) (n=8 per group). Tumor volumes were measured every other day. ANOVA 2-way analysis with Bonferroni post test was used to determine p-value. At the end of experiments, mice were sacrificed and subjected to pathological examinations.
(§3) The ability of FAM83A to confer cancer cell resistance to EGFR inhibitor in vivo was determined Vector control or FAM83A-overexpressing T4-2 cells were xenografted into mice, which were orally administered lapatinib by oral gavage at 30 mg/kg or 100 mg/kg twice daily for 3 weeks. […] Then, mice were randomized into vehicle (0.5% hydroxypropylmethylcellulose with 0.1% Tween 80 in water; n=8) and experimental treatment groups (n=8) to receive oral gavage of lapatinib at 30 mg/kg or 100 mg/kg twice daily for 3 weeks.

[3] = test system: FAM83A-overexpressing T4-2 cells; test: Lapatinib treatment of FAM83A-overexpressing T4-2 xenografts in mice; type: in vivo, BALB/c-nude mice
Procedure: as §2, §3

EGFR = test: Western blot of EGFR, phosphorylated EGFR and β1-integrin in AG1478-treated T4-2 cells; type: cell-based, human; conditions: 3D lrECM, western blot (FIG. 4B)
From the text: as §1

FAM83A [4] = test: RT-PCR and western blot of endogenous FAM83A in AG1478-treated T4-2 cells; type: cell-based, human
Procedure: The expression level of endogenous FA[…] in non-reverted and reverted T4-2 cells was analyzed by RT-PCR and western blot with antibody against endogenous FA[…]. […] RNA levels in T4-2 cells cultured in both 2D monolayer and 3D 1rECM treated with AG1478 or vehicle control DMSO for 4 days. FIG. 7B is a bar graph quantification of the results from FIG. 7A. […] RNA levels in S1 cells growing in 2D or 3D cultures. FIG. 7C is a western blot comparison of FA[…] protein levels in S1 and T4-2 cells growing in 2D or 3D cultures in the presence or absence of AG1478.

MDA-MB468 cells = test: Xenograft growth of FAM83A shRNA-treated MDA-MB468 cells in nude mice; type: in vivo, BALB/c-nude mice; conditions: fraction of the control cells (FIG. 17B)
Procedure: as §2
To confirm this observation for cells with stable FAM83A-depletion and a different genetic background, control or FAM83A shRNA-treated MDA-MB468 cells were subcutaneously injected into the rear flank of nude mice and monitored for their growth. For FAM83A shRNA production, a double-stranded DNA oligonucleotide was generated from the following sequences: sense, 5′-[…]-3′ (SEQ ID NO:7); antisense, 5′-[…]-3′ (SEQ ID NO:8) (target sequence underlined; BamH1/EcoR1 cohesive ends italicized). Both oligonucleotides were annealed and ligated into BamH1/EcoR1 site of pGreen puro lentival vector (System Biosciences).

FAM83A [5] = test: FAM83A protein knock-down by siRNA in T4-2 cells (western blot and immunofluorescence with FAM83A polyclonal antibody); type: cell-based, human; conditions: T4-2 lysates, western blot vs scrambled control (FIG. 14B)
Procedure: The specificity of FAM83A polyclonal antibody was tested by performing western blot and immunofluorescence analysis in two different sets of FAM83A-specific siRNA-treated T4-2 cells (siRNA#1, SEQ ID NO:1; and siRNA#2, SEQ ID NO:2) using the FAM83A polyclonal antibody.

[6] = lapatinib 30 mg/kg, hematoxylin and eosin (FIG. 18B)
[7] = lapatinib oral gavage twice daily for 3 weeks, 30 mg/kg (FIG. 17D)

COc1cccc(-c2cc(=O)c3ccccc3o2)c1N [PD98059]
induction of phenotypically normal acinus-like structures (HMT3522 T4-2 cells; 20 μM PD98059): phenotypically normal acinus-like structures were induced | phenotypic reversion of full-length FAM83A overexpressing T4-2 cells [1]: undergo phenotypic reversion

COc1cc2ncnc(Nc3ccc(F)c(Cl)c3)c2cc1OCCCN1CCOCC1 [gefitinib]
phenotypic reversion of control T4-2 cells (HMT3522 T4-2 cells): reverted

CS(=O)(=O)CCNCc1ccc(-c2ccc3ncnc(Nc4ccc(OCc5cccc(F)c5)c(Cl)c4)c3c2)o1 [lapatinib]
phenotypic reversion of control T4-2 cells (HMT3522 T4-2 cells): reverted | structure of FAM83A-overexpressing T4-2 cells in presence of EGFR inhibitor ([1]; FIG. 17C): maintained disorganized structures | dose dependence of tumor inhibitory action on control cells ([2]; 30 mg/kg or 100 mg/kg oral gavage twice daily (FIG. 18A)): independent of the dose above 30 mg/kg | pathological examination of sectioned control tumors [2, 6]: well-circumscribed and distinctly separated from the stromal regions | growth of control tumors [2, 7]: significantly inhibited | pathological examination of sectioned FAM83A-overexpressing tumors [3, 6]: had been invading the stromal regions | size of lapatinib-treated FAM83A-overexpressing tumors relative to controls ([3]; lapatinib oral gavage twice daily for 3 weeks (FIG. 17D)): 5 times | growth of FAM83A-overexpressing tumors [3, 7]: not affected

AG1478
morphology of T4-2 cells treated with AG1478 (HMT3522 T4-2 cells; 3D lrECM, 10 days, different concentrations (FIG. 4A)): form growth arrested acinus-like structures | induction of phenotypically normal acinus-like structures (HMT3522 T4-2 cells; 100 nM AG1478): phenotypically normal acinus-like structures were induced | phenotypic reversion of full-length FAM83A overexpressing T4-2 cells [1]: not | EGFR protein level (EGFR): decreased levels | phosphorylated EGFR level (EGFR): lower levels | β1-integrin protein level (EGFR): decreased levels | FAM83A mRNA expression (FAM83A [4]; AG1478 4 days, RT-PCR): decreased | FAM83A protein expression (FAM83A [4]; AG1478, western blot): decreased

B1: FAM83A shRNA: shRNA from double-stranded DNA oligonucleotide (SEQ ID NO:7 and 8) ligated into pGreen puro lentiviral vector (nucleic acid)
sense: GATCCGTGTGGAAGGAGAGATATACTTCCTGTCAGATATATCTCTCCTTCCACACTTTTTG
antisense: AATTCAAAAAGTGTGGAAGGAGAGATATATCTGACAGGAAGTATATCTCTCCTTCCACACG
tumor growth relative to control cells (MDA-MB468 cells): ¼

B2: siRNA#1: one of two different sets of FAM83A-specific siRNA; printed as SEQ ID NO:1 (nucleic acid)
chain: ATGAGCCGGTCAAGGCACCTGGGCAAAATCCGGAAGCGTCTGGAAGATGTCAAGAGCCAGTGGGTCCGGCCAGCCAGGGCTGACTTTAGTGACAACGAGAGTGCCCGGCTGGCCACGGACGCCCTCTTGGATGGGGGTTCTGAAGCCTACTGGCGGGTGCTCAGCCAGGAAGGCGAGGTGGACTTCTTGTCCTCGGTGGAGGCCCAGTACATCCAGGCCCAGGCCAGGGAGCCCCCGTGTCCCCCAGACACCCTGGGAGGGGCGGAAGCAGGCCCTAAGGGACTGGACTCCAGCTCCCTACAGTCCGGCACCTACTTCCCTGTGGCCTCAGAGGGCAGCGAGCCGGCCCTACTGCACAGCTGGGCCTCAGCTGAGAAGCCCTACCTGAAGGAAAAATCCAGCGCCACTGTGTACTTCCAGACCGTCAAGCACAACAACATCAGAGACCTCGTCCGCCGCTGCATCACCCGGACTAGCCAGGTCCTGGTCATCCTGATGGATGTGTTCACGGATGTGGAGATCTTCTGTGACATTCTAGAGGCAGCCAACAAGCGTGGGGTGTTCGTTTGTGTGCTCCTGGACCAGGGAGGTGTGAAGCTCTTCCAGGAGATGTGTGACAAAGTCCAGATCTCTGACAGTCACCTCAAGAACATTTCCATCCGGAGTGTGGAAGGAGAGATATACTGTGCCAAGTCAGGCAGGAAATTCGCTGGCCAAATCCGGGAGAAGTTCATCATCTCGGACTGGAGATTTGTCCTGTCTGGATCTTACAGCTTCACCTGGCTCTGCGGACACGTGCACCGGAACATCCTCTCCAAGTTCACAGGCCAGGCGGTGGAGCTGTTTGACGAGGAGTTCCGCCACCTCTACGCCTCCTCCAAGCCTGTGATGGGCCTGAAGTCCCCGCGGCTGGTCGCCCCCGTCCCGCCCGGAGCAGCCCCGGCCAATGGCCGCCTTAGCAGCAGCAGTGGCTCCGCCAGTGACCGCACGTCCTCCAACCCCTTCAGCGGCCGCTCGGCAGGCAGCCACCCCGGTACCCGAAGTGTGTCCGCGTCTTCAGGGCCCTGTAGCCCCGCGGCCCCACACCCGCCTCCACCGCCCCGGTTCCAGCCCCACCAAGGCCCTTGGGGAGCCCCGAGTCCCCAGGCCCACCTCTCCCCGCGGCCCCACGACGGCCCGCCCGCCGCTGTCTACAGCAACCTGGGGGCCTACAGGCCCACGCGGCTGCAGCTGGAGCAGCTGGGCCTGGTGCCGAGGCTGACTCCAACCTGGAGGCCCTTCCTGCAGGCCTCCCCTCACTTCTGA
modifications: Homo sapien
23 kDa FAM83A band (FAM83A [5]): reduced | 99 kDa FAM83A band (FAM83A [5]): reduced
